The source of these data is patent publication US20230085307A1, “PYRIDAZINONE COMPOUND AND HERBICIDE” (NISSAN CHEMICAL CORPORATION, priority 2019, published 2023).

The test system of one assay is lambsquarters. In words: Test Example 5: herbicidal effect by foliage application, plastic box (Table 20, symbol O). Format: in vivo, lambsquarters (Chenopodium album). As to conditions: 320 g/ha, foliage application after 14-day growth, evaluated three weeks after application. The gist of the method:
(§1)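 Plants sown in sterilized diluvial soil and grown 14 days in a greenhouse at 25° C to 30° C, then sprayed on the foliage with the compound's emulsion diluted in water to a predetermined herbicide amount. Injury to weeds and crops scored three weeks after application on a visual rating scale.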

The next assay has as its system redroot pigweed. Put plainly: Test Example 4: herbicidal effect by soil treatment (Table 19, symbol N). Format: in vivo, redroot pigweed (Amaranthus retroflexus). Particulars: amount of applied herbicide 320 g/ha. The gist of the method: (§2)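 Three weeks of greenhouse growth at 25° C. to 30° C. followed a uniform surface spray of water-diluted emulsion at a predetermined herbicide amount. Seeds had been sown beforehand under about 1.5 cm of sterilized diluvial soil. Grading followed criteria set out in an earlier test.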

In assay [1] the test system is wild oat. Put plainly: Test Example 4: herbicidal effect by soil treatment (Table 19, symbol I). Format: in vivo, wild oat (Avena fatua). As to conditions: amount of applied herbicide 320 g/ha. The gist of the method: as §2
The subject of assay [2] is barnyard grass. In words: Test Example 5: herbicidal effect by foliage application, plastic box (Table 20, symbol H). Format: in vivo, barnyard grass (Echinochloa crus-galli). As to conditions: 320 g/ha, foliage application after 14-day growth, evaluated three weeks after application. The gist of the method: as §1
The subject of assay [3] is wild oat. In words: Test Example 5: herbicidal effect by foliage application, plastic box (Table 20, symbol I). The class given is in vivo, wild oat (Avena fatua). As to conditions: 320 g/ha, foliage application after 14-day growth, evaluated three weeks after application. The gist of the method: as §1
Another assay has as its system windgrass. Put plainly: Test Example 5: herbicidal effect by foliage application, plastic box (Table 20, symbol L). The class given is in vivo, windgrass (Apera spica-venti). Particulars: 320 g/ha, foliage application after 14-day growth, evaluated three weeks after application. The gist of the method:
as §1

In the next assay the test system is oval-leafed pondweed. Put plainly: Test Example 1: herbicidal activity, application before weed generation under submerged conditions (Table 16, symbol C). Format: in vivo, oval-leafed pondweed (Monochoria vaginalis). As to conditions: amount of applied herbicide 320 g/ha. The gist of the method: (§3)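 Alluvial soil was flooded to 4 cm depth, weed seeds were sown mixed and 2.5-leaf rice seedlings were transplanted. On sowing day, the compound's emulsion, diluted in water to a set dose, was applied to the water surface. Plants grew at 25–30 °C and were scored 0–5 after three weeks.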

The test system of another assay is Japanese bulrush. In words: Test Example 1: herbicidal activity, application before weed generation under submerged conditions (Table 16, symbol B). Format: in vivo, Japanese bulrush (Schoenoplectus juncoides). Particulars: amount of applied herbicide 320 g/ha. The gist of the method: as §3
A further assay concerns Chinese sprangletop. Put plainly: Test Example 3: herbicidal effect by foliage application, Wagner pot (Table 18, symbol D). Particulars: 320 g/ha. Format: in vivo, chinese sprangletop (Leptochloa chinensis). The gist of the method:
(§4)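 Plants were sown in alluvial soil held under 0.1–0.5 cm standing water and grown 14 days in a greenhouse at 25–30 °C. An emulsifiable formulation, water-diluted to the set dose, was then sprayed onto the foliage, and effects were scored three weeks later using previously defined criteria.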

Assay [4] concerns blackgrass. Put plainly: Test Example 4: herbicidal effect by soil treatment (Table 19, symbol J). The class given is in vivo, blackgrass (Alopecurus myosuroides). As to conditions: amount of applied herbicide 320 g/ha. The gist of the method: as §2
Assay [5] has as its system southern crabgrass. In words: Test Example 4: herbicidal effect by soil treatment (Table 19, symbol F). The class given is in vivo, southern crabgrass (Digitaria ciliaris). Particulars: amount of applied herbicide 320 g/ha. The gist of the method:
as §2

Another assay relates to persian speedwell. In words: Test Example 5: herbicidal effect by foliage application, plastic box (Table 20, symbol R). Format: in vivo, Persian speedwell (Veronica persica). Particulars: 320 g/ha, foliage application after 14-day growth, evaluated three weeks after application. The gist of the method:
as §1

For assay [6], the system named is barnyard grass. In words: Test Example 3: herbicidal effect by foliage application, Wagner pot (Table 18, symbol H). As to conditions: 320 g/ha. Format: in vivo, barnyard grass (Echinochloa crus-galli). The gist of the method: as §4
Assay [7] concerns southern crabgrass. Put plainly: Test Example 5: herbicidal effect by foliage application, plastic box (Table 20, symbol F). Particulars: 320 g/ha, foliage application after 14-day growth, evaluated three weeks after application. The class given is in vivo, southern crabgrass (Digitaria ciliaris). The gist of the method: as §1
Assay [8] concerns blackgrass. In words: Test Example 5: herbicidal effect by foliage application, plastic box (Table 20, symbol J). Format: in vivo, blackgrass (Alopecurus myosuroides). As to conditions: 320 g/ha, foliage application after 14-day growth, evaluated three weeks after application. The gist of the method: as §1
Another assay relates to Italian ryegrass. In words: Test Example 4: herbicidal effect by soil treatment (Table 19, symbol K). The class given is in vivo, Italian ryegrass (Lolium multiflorum). Particulars: amount of applied herbicide 320 g/ha. The gist of the method: as §2

With `COc1ccc2c(-c3c(OC(=O)c4ccccc4OC)c(C)nn(C)c3=O)c(-c3ccccc3OC)sc2c1` [3-158], the “herbicidal effect on O: lambsquarters (evaluation grade 0-5)” value with lambsquarters was 5 (Herbicidal rate of 90% or more (almost completely withered)). Further, the “Herbicidal effect by soil treatment, N: redroot pigweed” value in the assay with redroot pigweed is 2 (Herbicidal rate of 20% or more and less than 40%). The “Herbicidal effect by soil treatment, I: wild oat” value with wild oat [1] is 0 (Herbicidal rate of 5% or less (almost no effect)). Moreover, the “herbicidal effect on H: barnyard grass (evaluation grade 0-5)” value with barnyard grass [2] is recorded as 5 (Herbicidal rate of 90% or more (almost completely withered)). Further, the “herbicidal effect on I: wild oat (evaluation grade 0-5)” value in the assay on wild oat [3] was 3 (Herbicidal rate of 40% or more and less than 70%). The “herbicidal effect on L: windgrass (evaluation grade 0-5)” value in the assay on windgrass was 5 (Herbicidal rate of 90% or more (almost completely withered)). In addition, the “Herbicidal effect, C: oval-leafed pondweed” value in the assay with oval-leafed pondweed is recorded as 5 (Herbicidal rate of 90% or more (almost completely withered)). In the assay with Japanese bulrush, the “Herbicidal effect, B: Japanese bulrush” value was 5 (Herbicidal rate of 90% or more (almost completely withered)). Also, the “herbicidal effect on Chinese sprangletop (D)” value with Chinese sprangletop is 3 (Herbicidal rate of 40% or more and less than 70%). The “Herbicidal effect by soil treatment, J: blackgrass” value in the assay with blackgrass [4] was 0 (Herbicidal rate of 5% or less (almost no effect)). Further, the “Herbicidal effect by soil treatment, F: southern crabgrass” value in the assay on southern crabgrass [5] is 0 (Herbicidal rate of 5% or less (almost no effect)). For the same compound, in the assay on persian speedwell, the “herbicidal effect on R: persian speedwell (evaluation grade 0-5)” value was 5 (Herbicidal rate of 90% or more (almost completely withered)). Further, the “herbicidal effect on barnyard grass (H)” value with barnyard grass [6] was 5 (Herbicidal rate of 90% or more (almost completely withered)). The “herbicidal effect on F: southern crabgrass (evaluation grade 0-5)” value with southern crabgrass [7] is 5 (Herbicidal rate of 90% or more (almost completely withered)). Moreover, the “herbicidal effect on J: blackgrass (evaluation grade 0-5)” value in the assay with blackgrass [8] was 5 (Herbicidal rate of 90% or more (almost completely withered)). Also, in the assay on Italian ryegrass, the “Herbicidal effect by soil treatment, K: Italian ryegrass” value is on record as 0 (Herbicidal rate of 5% or less (almost no effect)).
As for `CCCOc1ccc(-c2sc3c(Cl)cccc3c2-c2c(OC(=O)CCC)c(C)nn(C)c2=O)cc1` [4-028], the “herbicidal effect on O: lambsquarters (evaluation grade 0-5)” value in the assay with lambsquarters is reported as 5 (Herbicidal rate of 90% or more (almost completely withered)). In the assay with redroot pigweed, the “Herbicidal effect by soil treatment, N: redroot pigweed” value was 4 (Herbicidal rate of 70% or more and less than 90%). For the same compound, the “Herbicidal effect by soil treatment, I: wild oat” value with wild oat [1] was 0 (Herbicidal rate of 5% or less (almost no effect)). Besides, in the assay on barnyard grass [2], the “herbicidal effect on H: barnyard grass (evaluation grade 0-5)” value is on record as 5 (Herbicidal rate of 90% or more (almost completely withered)). Moreover, the “herbicidal effect on I: wild oat (evaluation grade 0-5)” value in the assay on wild oat [3] is on record as 0 (Herbicidal rate of 5% or less (almost no effect)). In addition, in the assay with windgrass, the “herbicidal effect on L: windgrass (evaluation grade 0-5)” value was 0 (Herbicidal rate of 5% or less (almost no effect)). Besides, the “Herbicidal effect, C: oval-leafed pondweed” value in the assay with oval-leafed pondweed is given as 0 (Herbicidal rate of 5% or less (almost no effect)). In addition, in the assay with Japanese bulrush, the “Herbicidal effect, B: Japanese bulrush” value is 3 (Herbicidal rate of 40% or more and less than 70%). In the assay with Chinese sprangletop, the “herbicidal effect on Chinese sprangletop (D)” value was 3 (Herbicidal rate of 40% or more and less than 70%). Also, the “Herbicidal effect by soil treatment, J: blackgrass” value with blackgrass [4] is on record as 0 (Herbicidal rate of 5% or less (almost no effect)). In addition, the “Herbicidal effect by soil treatment, F: southern crabgrass” value in the assay with southern crabgrass [5] is listed as 0 (Herbicidal rate of 5% or less (almost no effect)). The “herbicidal effect on R: persian speedwell (evaluation grade 0-5)” value with persian speedwell was 5 (Herbicidal rate of 90% or more (almost completely withered)). In addition, the “herbicidal effect on barnyard grass (H)” value with barnyard grass [6] is given as 5 (Herbicidal rate of 90% or more (almost completely withered)). Also, the “herbicidal effect on F: southern crabgrass (evaluation grade 0-5)” value in the assay on southern crabgrass [7] was 0 (Herbicidal rate of 5% or less (almost no effect)). Besides, the “herbicidal effect on J: blackgrass (evaluation grade 0-5)” value in the assay on blackgrass [8] is 0 (Herbicidal rate of 5% or less (almost no effect)). In the assay with Italian ryegrass, the “Herbicidal effect by soil treatment, K: Italian ryegrass” value was 0 (Herbicidal rate of 5% or less (almost no effect)).
